We go through three compounds from patent publication US11026889B2, “Polymeric drug delivery systems for treatment of disease” (Board of Regents, The University of Texas System, priority 2015, dated 2021).

Molecules are shown by their SMILES.

The test system of experiment [1] is Miapaca-2 cells. Kind of experiment: Clonogenicity assay, Miapaca-2. Format: cell-based, human. Conditions: 3 μM, 10 days, vs no treatment. The procedure:
(§1) Assays of cell proliferation and clonogenicity. Cells were seeded at 2000 cells/well in 96-well plates and treated at 37° C. for 72 h before MTS [3-(4,5-dimethylthiazol-2-yl)-5-(3-carboxymethoxyphenyl)-2-(4-sulfophenyl)-2H- tetrazolium] assay. The proportion of viable cells was normalized to that of untreated cells and expressed as mean±standard error of the mean (n=6). […] Cells were seeded at 1000 cells per 10-cm plate in growth medium overnight and treated at 37° C. for 10 days. At the end of this 10-day period, colonies were fixed with formalin and stained with crystal violet. Colonies with more than 20 cells were counted.

A further experiment deals with HPSCs. Description: Cell proliferation MTS assay, HPSCs. In kind it is cell-based. Conditions: 72 h, read-out: IC50, HPSC proliferation. The procedure: as §1
(Tetrazolium assays rely on reduction of a dye to a coloured formazan, in cell work by metabolically active cells.)

In another experiment the test system is Panc-1 cells. Kind of experiment: Cell proliferation MTS assay, Panc-1. In kind it is cell-based. Conditions: Homo sapiens, 72 h. The procedure: as §1
For the next experiment, the system named is L3.6pl cells. Description: Cell proliferation MTS assay, L3.6pl. Format: cell-based. Conditions: Homo sapiens, 72 h. The method, then:
as §1

Experiment [2] relates to Miapaca-2 cells. Kind of experiment: Cell proliferation MTS assay, Miapaca-2. Conditions: Homo sapiens, MIA PaCa-2, 72 h. Format: cell-based. The method, then: as §1
Experiment [3] has as its system spontaneous PDAC of KPC-luc mice. Kind of experiment: Survival study in KPC-luc mice. In kind it is in vivo. Conditions: KPC-luc mice enrolled at 95 to 100 days of age; CTL 139 days. The procedure: FIG. 22: Antitumor efficacy of M-CPA/PTX in a transgenic mice model with spontaneous PDAC in the pancreas of KPC-Luc mice. Mice with positive bioluminescence signals were enrolled at 95 to 100 days of age. M-CPA/PTX was given at 5 mg/kg/drug per injection. The treatment schedule was: 3 intravenous injections per week for the first 2 weeks, followed by 2 intraperitoneal injections per week until death or 90 days from the initiation of treatment. Untreated mice were kept as control (CTL). Gemcitabine and abraxane were used as the standard therapies. Gemcitabine was intraperitoneally injected at 100 mg/kg every other day until death. Abraxane was given at 5 mg/kg/injection following the same schedule as M-CPA/PTX.
The genetically engineered mouse model of PDAC (the KPC-luc mouse model) was also used to test for the antitumor efficacy of drug-loaded micelles on tumors in a survival study. […] The mice were assigned into four different groups: (1) mice with untreated […] (control group), (2) mice intravenously injected gemcitabine at 100 mg/kg every other day until death, (3) mice given Abraxane at 5 mg/kg/injection, and (4) M-CPA/PTX given at 5 mg/kg/drug per injection. […]

As to `CC1=C2C[C@H]3[C@@H](CC=C4C[C@@H](O)CC[C@@]43C)[C@@H]2CC[C@]12O[C@@H]1C[C@H](C)CN[C@H]1[C@H]2C` [CPA, cyclopamine], the “reduction of the number of colonies” value in the experiment with Miapaca-2 cells [1] came out at 18.2±1.3%. Besides, the IC50 with HPSCs was 13.3 ± 1.2 µM; with Panc-1 cells it was ~163 µM; with L3.6pl cells it was 16 ± 1.5 µM; in the experiment on Miapaca-2 cells [2], 10.2 ± 0.1 µM.

In turn, `Nc1ccn([C@@H]2O[C@H](CO)[C@@H](O)C2(F)F)c(=O)n1` [gemcitabine] displayed a median survival in experiment [3] of 167 days.

Regarding `CC(=O)O[C@H]1C(=O)[C@@]2(C)[C@H]([C@H](OC(=O)c3ccccc3)[C@]3(O)C[C@H](OC(=O)[C@H](O)[C@@H](NC(=O)c4ccccc4)c4ccccc4)C(C)=C1C3(C)C)[C@]1(OC(C)=O)CO[C@@H]1C[C@@H]2O` [PTX, paclitaxel], the IC50 in the experiment with Panc-1 cells worked out at 0.0024 ± 0.0004 µM; in the experiment with L3.6pl cells it was 0.0014 ± 0.0001 µM; with Miapaca-2 cells [2], 0.0012 ± 0.0001 µM.
